# Assay results: paper PMC10733463, “Berberine-microbiota interplay: orchestrating gut health through modulation of the gut microbiota and metabolic transformation into bioactive metabolites” (Frontiers in Pharmacology, 2023)
# Experiments:
# [1] = Bodyweight of broilers fed berberine-supplemented diet; type: in vivo, Ross 308 broiler chickens; conditions: 21 days post-hatch, n = 12
# Text: (§1) The study was undertaken following the guidelines of the ethics committee of the Faculty of Veterinary Medicine and Bioscience Engineering, Ghent University, in accordance with the EU Directive 2010/63/EU. […] They were allotted into 4 groups, with three replicate pens per group each housing 8 chickens. The animals were not vaccinated. Water and commercial starter feed (day 1-12, FARM 1 Mash, Country's Best, […], Belgium) or grower (day 13-21, FARM 2 mash, Country's Best, […], Belgium) were provided ad libitum. […] At day 21, 4 birds per pen were weighted then euthanized by sodium pentobarbital injection for sampling. […] Additionally, ileal and caecal content samples were collected and stored at -20°C for berberine and berberine-derived metabolite quantification.
# [2] = tested on: duodenum; test: Intestinal morphology (villus length, crypt depth) in the duodenum; type: in vivo, Ross 308 broiler chickens; conditions: 21 days
# Text: as §1, with “quantification. […] 24 h formalin-fixed duodenal intestinal tissue segments were embedded in paraffin wax and sectioned at 5 μm, followed by haematoxylin and eosin staining. Villus length and crypt depth were assessed using a PC-based image analysis system (Leica Application Suite V4, LAS V4.; Leica, Diegem Belgium).” for “quantification.”
# [3] = tested on: caecal microbiota; test: 16S rRNA gene sequencing, microbiota composition in the caecum; type: in vivo, Ross 308 broiler chickens
# [4] = tested on: Caco-2 cells; test: Cell viability assay (neutral red uptake), Caco-2; type: cell-based, human; conditions: 0.1 µg berberine/mL medium
# Method: (§2) Caco-2 cells (human intestinal epithelial cells) were cultured in MEM (Gibco, Paisley, United Kingdom) supplemented with 10% Fetal Bovine Serum (FBS), 1% L-glutamine (Gibco), 1% MEM NEAA (Gibco) and 1% penicillin/streptomycin (P/S) (Gibco). T84 cells (human intestinal epithelial cells) were cultured in 1:1 DMEM/F12 (Gibco) supplemented with 10% FBS, 1% L-glutamine and 1% P/S (37°C, 5% CO2). The neutral red uptake assay was employed to evaluate the potential cytotoxicity of berberine ([Repetto et al., 2008]). Briefly, Caco-2 and T84 were seeded at 2 × 10^5 cells/well and 5 × 10^4 cells/well respectively in 96-well plates (Greiner Bio-one, Frickenhausen, Germany) and cultivated for 24 h in antibiotic-free medium (treatment medium) for attachment. […] A 10-fold dilution of sodium dodecyl sulfate (Sigma-Aldrich), ranging from 10 mg/mL to 10^−6 mg/mL was used a positive control. Cells were washed with 200 µL pre-warmed HBSS(+) (Gibco) and then treated with 150 µL of Neutral Red medium, consisting of 1:80 Neutral Red solution 0.33% (Sigma-Aldrich)/treatment medium for 3 h. Cells were washed in 200 µL HBSS(+) and treated with 100 µL of Neutral Red Desorb solution, consisting of 1% glacial acetic acid (Merck, Darmstadt, Germany), 50% ethanol (95%, Chem-Lab, Zedelgem, Belgium) and 49% deionized water.
# [5] = tested on: T84 cells; test: Cell viability assay (neutral red uptake), T84; type: cell-based, human; conditions: 0.1 µg berberine/mL medium
# Method: as §2
# [6] = 0.1 g berberine/kg feed vs normal diet, 21 days, LinDA-normalized abundance
# [7] = 0.1 g berberine/kg feed, 21 days
# [8] = 0.5 g berberine/kg feed vs normal diet, 21 days, LinDA-normalized abundance
# [9] = 0.5 g berberine/kg feed, 21 days
# [10] = 1 g berberine/kg feed vs normal diet, 21 days, LinDA-normalized abundance
smiles,measurement,setting,value
"COc1ccc2cc3[n+](cc2c1OC)CCc1cc2c(cc1-3)OCO2 [Berberine, Berberine chloride]",Bodyweight,[1]; 0.1 g berberine/kg feed,655 ± 76 g
same,Bodyweight,[1]; 0.5 g berberine/kg feed,703 ± 115 g
same,Bodyweight,[1]; 1 g berberine/kg feed,671 ± 55 g
same,Crypt depth,[2]; 0.1 g berberine/kg feed,114 ± 21 µm
same,Villus length,[2]; 0.1 g berberine/kg feed,"1,678 ± 101 µm"
same,Villus to crypt ratio,[2]; 0.1 g berberine/kg feed,15.30 ± 2.50
same,Crypt depth,[2]; 0.5 g berberine/kg feed,104 ± 15 µm
same,Villus length,[2]; 0.5 g berberine/kg feed,"1,815 ± 148 µm"
same,Villus to crypt ratio,[2]; 0.5 g berberine/kg feed,17.98 ± 2.53
same,Crypt depth,[2]; 1 g berberine/kg feed,103 ± 17 µm
same,Villus length,[2]; 1 g berberine/kg feed,"1,820 ± 150 µm"
same,Villus to crypt ratio,[2]; 1 g berberine/kg feed,18.31 ± 3.21
same,"L2 FC ASF356, 0.1 vs 0",[3]; [6],3.88
same,"L2 FC CHKCI001, 0.1 vs 0",[3]; [6],1.33
same,"L2 FC Family_ Lachnospiraceae, 0.1 vs 0",[3]; [6],-0.10
same,"L2 FC Fusicatenibacter, 0.1 vs 0",[3]; [6],1.41
same,"L2 FC uncultured genus of Peptostreptococcaceae, 0.1 vs 0",[3]; [6],0.26
same,Mean relative abundance (%) ASF356,[3]; [7],0.40%
same,Mean relative abundance (%) CHKCI001,[3]; [7],0.02%
same,Mean relative abundance (%) Family_ Lachnospiraceae,[3]; [7],2.08%
same,Mean relative abundance (%) Fusicatenibacter,[3]; [7],0.06%
same,Mean relative abundance (%) uncultured genus of Peptostreptococcaceae,[3]; [7],0.63%
same,Mean relative abundance of Peptostreptococcaceae,[3]; [7],0.66%
same,L2FC of LinDA-normalized abundance of Peptostreptococcaceae,[3]; 0.1 vs 0 g berberine/kg feed,0.02
same,"L2 FC ASF356, 0.5 vs 0",[3]; [8],4.47
same,"L2 FC CHKCI001, 0.5 vs 0",[3]; [8],2.34
same,"L2 FC Family_ Lachnospiraceae, 0.5 vs 0",[3]; [8],1.25
same,"L2 FC Fusicatenibacter, 0.5 vs 0",[3]; [8],3.47
same,"L2 FC uncultured genus of Peptostreptococcaceae, 0.5 vs 0",[3]; [8],-0.52
same,Mean relative abundance (%) ASF356,[3]; [9],0.38%
same,Mean relative abundance (%) CHKCI001,[3]; [9],0.03%
same,Mean relative abundance (%) Family_ Lachnospiraceae,[3]; [9],5.61%
same,Mean relative abundance (%) Fusicatenibacter,[3]; [9],0.32%
same,Mean relative abundance (%) uncultured genus of Peptostreptococcaceae,[3]; [9],0.54%
same,Mean relative abundance of Peptostreptococcaceae,[3]; [9],0.56%
same,L2FC of LinDA-normalized abundance of Peptostreptococcaceae,[3]; 0.5 vs 0 g berberine/kg feed,-0.55
same,"L2 FC ASF356, 1 vs 0",[3]; [10],3.78
same,"L2 FC CHKCI001, 1 vs 0",[3]; [10],1.13
same,"L2 FC Family_ Lachnospiraceae, 1 vs 0",[3]; [10],0.72
same,"L2 FC Fusicatenibacter, 1 vs 0",[3]; [10],2.41
same,"L2 FC uncultured genus of Peptostreptococcaceae, 1 vs 0",[3]; [10],-8.12
same,Mean relative abundance (%) ASF356,"[3]; 1 g berberine/kg feed, 21 days",0.32%
same,Mean relative abundance (%) CHKCI001,"[3]; 1 g berberine/kg feed, 21 days",0.02%
same,Mean relative abundance (%) Family_ Lachnospiraceae,"[3]; 1 g berberine/kg feed, 21 days",5.61%
same,Mean relative abundance (%) Fusicatenibacter,"[3]; 1 g berberine/kg feed, 21 days",0.12%
same,Mean relative abundance (%) uncultured genus of Peptostreptococcaceae,"[3]; 1 g berberine/kg feed, 21 days",0.00%
same,Mean relative abundance of Peptostreptococcaceae,"[3]; 1 g berberine/kg feed, 21 days",0.00%
same,L2FC of LinDA-normalized abundance of Peptostreptococcaceae,[3]; 1 vs 0 g berberine/kg feed,-7.85
same,Observed number of OTUs,"[3]; lowest concentration (0.1 g/kg feed), p = 0.041",significantly increased
same,Bacterial richness (Observed number of OTUs),"[3]; middle concentration (0.5 g/kg feed), p = 0.087",tended to increase
same,Cytotoxicity (Neutral Red Uptake),[4],considered safe
same,Cytotoxicity (Neutral Red Uptake),[5],considered safe
